Measured values: patent US10894807B2 (Siemens Medical Solutions USA, Inc., priority 2011, dated 2021)

Target: human PSMA (Homo sapiens (Human), UniProt Q04609)
Test: Enzymatic assay for in vitro evaluation of PSMA inhibitors (fluorescent assay of PSMA activity, NAAG substrate, OPA detection of glutamate)
Format: biochemical

Sequence of human PSMA (Q04609 whole entry): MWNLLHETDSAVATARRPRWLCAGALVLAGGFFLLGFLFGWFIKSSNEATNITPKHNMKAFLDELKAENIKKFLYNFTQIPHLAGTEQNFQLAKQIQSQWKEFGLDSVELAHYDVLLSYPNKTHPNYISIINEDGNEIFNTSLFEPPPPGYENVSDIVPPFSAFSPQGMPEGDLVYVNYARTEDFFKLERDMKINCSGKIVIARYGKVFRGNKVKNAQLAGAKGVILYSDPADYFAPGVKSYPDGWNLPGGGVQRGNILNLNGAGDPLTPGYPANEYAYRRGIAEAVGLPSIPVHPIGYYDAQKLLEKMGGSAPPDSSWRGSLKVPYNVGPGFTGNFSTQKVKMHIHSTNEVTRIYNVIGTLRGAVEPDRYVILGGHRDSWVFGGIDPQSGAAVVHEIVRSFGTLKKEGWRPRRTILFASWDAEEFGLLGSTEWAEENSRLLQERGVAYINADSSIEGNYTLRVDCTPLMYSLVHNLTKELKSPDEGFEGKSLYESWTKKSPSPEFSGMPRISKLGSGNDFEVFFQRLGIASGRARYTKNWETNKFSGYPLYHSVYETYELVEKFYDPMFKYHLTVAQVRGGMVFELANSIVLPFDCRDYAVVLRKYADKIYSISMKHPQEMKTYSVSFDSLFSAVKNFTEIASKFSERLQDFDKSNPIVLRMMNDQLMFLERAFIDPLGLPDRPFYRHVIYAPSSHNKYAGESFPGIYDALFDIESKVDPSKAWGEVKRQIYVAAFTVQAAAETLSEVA

## O=C(O)CCC(CP(=O)(O)OC[C@@H]1CCCN1C(=O)Cc1ccccc1)C(=O)O (stereo partly drawn) [P205, 2-((Hydroxy(((S)-1-(2-phenylacetyl)pyrrolidin-2-yl)methoxy)phosphoryl)methyl)pentanedioic Acid]
  PSMA Blkg % (10 μM): 79%

## O=C(O)CCC(CP(=O)(O)OC[C@@H]1CCCN1C(=O)CCc1ccc(-n2cc(CCCF)nn2)cc1)C(=O)O (stereo partly drawn) [P206, 2-(((((S)-1-(3-(4-(4-(3-Fluoropropyl)-1H-1,2,3-triazol-1-yl)phenyl)propanoyl)pyrrolidin-2-yl)methoxy)(hydroxy)phosphoryl)methyl)pentanedioic Acid]
  PSMA Blkg % (10 μM): 81%

## O=C(O)CCC(CP(=O)(O)OC[C@@H]1CCCN1C(=O)CCCc1ccc(-n2cc(CCCF)nn2)cc1)C(=O)O (stereo partly drawn) [P207, 2-(((((S)-1-(4-(4-(4-(3-Fluoropropyl)-1H-1,2,3-triazol-1-yl)phenyl)butanoyl)pyrrolidin-2-yl)methoxy)(hydroxy)phosphoryl)methyl)pentanedioic Acid]
  Ki: 18.8 nM
  PSMA Blkg % (10 μM): 96%

## O=C(O)CC[C@H](NC(=O)C[C@@H](NC(=O)CCCNC(=O)OCc1ccccc1)C(=O)O)C(=O)O [P208, (10R,14S)-3,8,12-Trioxo-1-phenyl-2-oxa-4,9,13-triazahexadecane-10,14,16-tricarboxylic Acid]
  PSMA Blkg % (10 μM): 75%

## O=C(O)CC[C@H](NC(=O)C[C@@H](NC(=O)CCCCCNC(=O)OCc1ccccc1)C(=O)O)C(=O)O [P209, (12R,16S)-3,10,14-Trioxo-1-phenyl-2-oxa-4,11,15-triazaoctadecane-12,16,18-tricarboxylic Acid]
  PSMA Blkg % (10 μM): 44%

## O=C(O)CC[C@H](NC(=O)C[C@@H](NC(=O)Cc1ccc(F)cc1)C(=O)O)C(=O)O [P210, (S)-2-((R)-3-Carboxy-3-(2-(4-fluorophenyl)acetamido)propanamido)pentanedioic Acid]
  PSMA Blkg % (10 μM): 16%

## O=C(O)CC[C@H](NC(=O)C[C@@H](NC(=O)CCCc1ccc(F)cc1)C(=O)O)C(=O)O [P211, (S)-2-((R)-3-Carboxy-3-(4-(4-fluorophenyl)butanamido)propanamido)pentanedioic Acid]
  PSMA Blkg % (10 μM): 43%

## O=C(O)CC[C@H](NC(=O)N[C@@H](Cc1ccc(NC(=O)Nc2ccc(-n3cc(CCCF)nn3)cc2)cc1)C(=O)O)C(=O)O [P212, (S)-2-(3-((S)-1-Carboxy-2-(4-(3-(4-(4-(3-fluoropropyl)-1H-1,2,3-triazol-1-yl)phenyl)ureido)phenyl)ethyl)ureido)pentanedioic Acid]
  Ki: 3.1 nM
  PSMA Blkg % (10 μM): 99%

## O=C(O)CC[C@H](NC(=O)C[C@@H](NC(=O)c1ccc(F)nc1)C(=O)O)C(=O)O [P213, (S)-2-((R)-3-Carboxy-3-(6-fluoronicotinamido)propanamido)pentanedioic Acid]
  PSMA Blkg % (10 μM): 33%

## O=C(O)CC[C@H](NC(=O)C[C@@H](NC(=O)NCCc1ccccc1)C(=O)O)C(=O)O [P214, (S)-2-((R)-3-Carboxy-3-(3-phenethylureido)propanamido)pentanedioic Acid]
  PSMA Blkg % (10 μM): 34%

## O=C(O)CC[C@H](NC(=O)N[C@@H](Cc1ccc(NC(=O)c2ccc(-n3cc(CCCF)nn3)cc2)cc1)C(=O)O)C(=O)O [P215, (S)-2-(3-((S)-1-Carboxy-2-(4-(4-(4-(3-fluoropropyl)-1H-1,2,3-triazol-1-yl)-benzamido)-phenyl)ethyl)ureido)pentanedioic Acid]
  Ki: 2.2 nM
  PSMA Blkg % (10 μM): 99%

## O=C(O)CC[C@H](NC(=O)N[C@@H](Cc1ccc(NC(=O)COCCOCCOCCn2cc(CCCF)nn2)cc1)C(=O)O)C(=O)O [P216]
  Ki: 21.9 nM
  PSMA Blkg % (10 μM): 98%
